The values that follow come from patent US20250034212A1, “PEPTIDE” (PEPTIDREAM INC., priority 2021, published 2025).

Starred links: 1 amine or outer side, 2 acyl side, 3 side chain; linkers in the order of their positions; H or OH if unused. Positions of bridges follow the written chain, without caps; N, C: chain ends. Non-standard residues stand in square brackets, D forms with d. Residues, ends and D or L forms follow the SMILES beside them. Groups on a side chain read outwards from the residue. *: point of attachment. Meglumine = CN(C[C@H](O)[C@@H](O)[C@H](O)[C@H](O)CO)*; Piperazinyl(4-CH2COOH) = O=C(O)CN1CCN(*)CC1; 1Nal = N[C@@H](Cc1cccc2ccccc12)C(=O)O; Gly(NCH2CH2Ph) = O=C(O)CNCCc1ccccc1; 4Pal = N[C@@H](Cc1ccncc1)C(=O)O; CO = O=C([*:1])[*:2]

Experiment [1] concerns the target T1, recombinant human TGF-β1 (Homo sapiens, UniProt P01137).
T1 construct: purchased R&D systems
Kind of experiment: SBE reporter assay in SBE reporter-HEK293 cells, TGF-β1 stimulation. It counts as cell-based. Conditions: TGF-β1 0.13 nM, 18 hours; for inhibition at 62 pM: peptide 0.062 nM; for inhibition at 0.000185 µM: peptide 0.185 nM; for inhibition at 0.00056 µM: peptide 0.56 nM; for inhibition at 0.0017 µM: peptide 1.7 nM; for inhibition at 0.005 µM: peptide 5.0 nM; for inhibition at 0.015 µM: peptide 15.0 nM. The source says: The inhibitory activity of the peptide can be calculated without limitation while the maximum signal induced by TGF-β is set to 0% inhibition and no stimulation is set to 100% inhibition. When the peptide is used at an appropriate concentration, for example, at the optimal concentration, the inhibitory activity is not limited but the inhibition is 5% or more, 10% or more, 20% or more, 30% or more, 40% or more, 50% or more, 60% or more, 70% or more, 80% or more, or 90% or more.
In this Example, the TGF-β1 inhibitory activity of the peptide of the present invention consisting of the amino acid sequence set forth in SEQ ID NOs: 2-33 synthesized in Examples 1 to 5 and 7 was evaluated by an SBE reporter assay using the SBE reporter-HEK293 cell system (BP Bioscience) as follows.
SBE reporter-HEK293 cells were cultured in E-MEM (Wako) containing 10% FBS (Sigma). The cells were detached using Accutase (Innovative Cell Technologies), suspended in E-MEM containing 0.5% FBS, seeded onto a 96-well plate(s) at a concentration of 45,000 cells per well, and cultured overnight. The next day, the peptide was added and allowed to stand for 20 min, and recombinant human TGF-β1 (R&D systems) or recombinant human TGF-β2 (R&D systems) was then added at 0.13 nM and cultured for 18 hours.
Thereafter, luciferase assay ONE-Glo reagent was added to each well and the plate was shaken for 5 min. A SpectraMax Paradigm multimode microplate reader (Molecular Devices) was then used for signal detection. The obtained signals were analyzed by GraphPad Prism. The inhibitory activity of the peptide was calculated while the maximum signal induced by TGF-β was set to 0% inhibition and no stimulation was set to 100% inhibition.

Experiment [2] deals with T1, recombinant human TGF-β1. Kind of experiment: SPR intermolecular interaction test, TGF-β1 immobilized on CM3 sensor chip (Biacore T200). It counts as binding. The note with it: Single Cycle Kinetics, human TGF-β1. As for the experimental part:
In this Example, (1) the activity of binding to TGF-β for various peptides consisting of the amino acid sequences set forth in SEQ ID NOs: 2-33 synthesized in Examples 1 to 5 and 7 was evaluated. (2) The activity and selectivity of binding of the peptide consisting of the amino acid sequence set forth in SEQ ID NO: 13 synthesized in Example 2 against two isoforms of TGF-β (TGF-β1 and β2) were checked. For this purpose, the intermolecular interaction of each peptide against TGF-β was tested by surface plasmon resonance (SPR) in the method described below. Specific test methods are described below.
A CM3 sensor chip (Global Life Science Technologies Japan Co., Ltd.) was inserted into a BiacoreT200 (Global Life Science Technologies Japan Co., Ltd.). Three priming runs were performed using running buffer: HBS-EP+ (Global Life Science Technologies Japan Co., Ltd.). The system was then equilibrated at a flow rate of 30 μL/min.
Subsequently, 50 μL of 60 mM EDC solution (Global Life Science Technologies Japan Co., Ltd.) and 50 μL of 650 mM NHS solution (Global Life Science Technologies Japan Co., Ltd.) were mixed. Next, the reaction was carried out at a flow rate of 10 μL/min for 420 seconds. Then, 150 μL of 0.2 μM TGF-β solution diluted in 10 mM acetic acid solution (pH 5.0) was prepared and reacted at a flow rate of 10 μL/min for 420 seconds to immobilize TGF-β on the CM3 sensor chip. TGF-β was human-derived TGF-β1 or β2 (recombinant human TGF-β1, 2) and was obtained from R&D systems. After immobilization, capping was performed by reacting with 1.0 M ethanolamine aqueous solution (Global Life Science Technologies Japan Co., Ltd.) at a flow rate of […] for 420 seconds.
A liquid prepared by dissolving each peptide at 10 mM in DMSO solution was diluted with running buffer to prepare a peptide-dissolved solution at a final concentration of 10 μM. Subsequently, 50 nM, 25 nM, 12.5 nM, 5 nM, and 2.5 nM peptide solutions were prepared. Using the above samples, the kinetics of each peptide against TGF-β was obtained by SPR measurement.
The kinetics evaluation model was Single Cycle Kinetics, and curve fitting was performed using Biacore T200 Evaluation Software Version 3.0 (Global Life Science Technologies Japan Co., Ltd.). The binding of various peptides to TGF-β was evaluated by performing least-squares curve fitting on the obtained sensorgram to calculate the KD value.

T1 sequence (P01137 279-390 limits assumed): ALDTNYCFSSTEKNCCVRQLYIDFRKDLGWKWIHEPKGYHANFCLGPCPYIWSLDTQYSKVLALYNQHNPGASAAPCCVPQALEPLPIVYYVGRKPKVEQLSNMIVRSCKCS

Turning to `CC(C)[C@@H]1NC(=O)CN(CCc2ccccc2)C(=O)[C@H](CC(=O)O)NC(=O)[C@H](CC(=O)O)NC(=O)[C@H](Cc2ccncc2)NC(=O)[C@H](C(C)C)NC(=O)[C@H](CC(N)=O)NC(=O)[C@H](C(C)C)NC(=O)[C@H](C(C)C)NC(=O)[C@H](Cc2cccc3ccccc23)NC(=O)[C@H](Cc2ccccc2)NC(=O)CSC[C@@H](C(=O)NCC(N)=O)NC(=O)[C@H](C(C)C)NC(=O)[C@H](Cc2c[nH]cn2)NC(=O)[C@H](Cc2ccc(O)cc2)NC(=O)[C@H](Cc2cccc3ccccc23)NC1=O` [TGFb1_006] ({CH2CO}-F[1Nal]VVNV[4Pal]DD[Gly(NCH2CH2Ph)]V[1Nal]YHVCG-NH2; thioether N-16), the inhibition at 75 pM in experiment [1] (peptide 0.075 nM) was 2.8%. Also, the inhibition at 0.00075 µM in experiment [1] (peptide 0.75 nM) came to 69.3%. The inhibition at 0.0075 µM in experiment [1] (peptide 7.5 nM) worked out at 97.1%. The inhibition at 0.075 µM in experiment [1] (peptide 75.0 nM) was found to be 99.7%. Moreover, the Kd in experiment [2] was 1.03 nM.

Take `CC(C)[C@@H]1NC(=O)CN(CCc2ccccc2)C(=O)[C@H](CCC(=O)O)NC(=O)[C@H](CC(=O)O)NC(=O)[C@H](Cc2ccncc2)NC(=O)[C@H](C(C)C)NC(=O)[C@H](CC(N)=O)NC(=O)[C@H](CCCCNC(=O)N(C)C[C@H](O)[C@@H](O)[C@H](O)[C@H](O)CO)NC(=O)[C@H](C(C)C)NC(=O)[C@H](Cc2cccc3ccccc23)NC(=O)[C@H](Cc2ccccc2)NC(=O)CSC[C@@H](C(=O)NCC(N)=O)NC(=O)[C@H](CCCCNC(=O)N2CCN(CC(=O)O)CC2)NC(=O)[C@H](Cc2c[nH]cn2)NC(=O)[C@H](Cc2ccc(O)cc2)NC(=O)[C@H](Cc2cccc3ccccc23)NC1=O` [TGFb1_024] ({CH2CO}-F[1Nal]VK([CO-Meglumine])NV[4Pal]DE[Gly(NCH2CH2Ph)]V[1Nal]YHK([CO-Piperazinyl(4-CH2COOH)])CG-NH2; thioether N-16): in experiment [1], the inhibition at 62 pM turned out to be 5.79%, the inhibition at 0.000185 µM was 16.6%, the inhibition at 0.00056 µM was 45% and the inhibition at 0.0017 µM was determined as 80.2%. In experiment [1], the inhibition at 0.005 µM was 95.5% and the inhibition at 0.015 µM stood at 98.9%. For the same compound, the Kd in experiment [2] was determined as 1.04 nM.

For `CC(C)[C@@H]1NC(=O)CN(CCc2ccccc2)C(=O)[C@H](CCCCNC(=O)N(C)C[C@H](O)[C@@H](O)[C@H](O)[C@H](O)CO)NC(=O)[C@H](CC(=O)O)NC(=O)[C@H](Cc2ccncc2)NC(=O)[C@H](C(C)C)NC(=O)[C@H](CC(N)=O)NC(=O)[C@H](CCCCNC(=O)N(C)C[C@H](O)[C@@H](O)[C@H](O)[C@H](O)CO)NC(=O)[C@H](C(C)C)NC(=O)[C@H](Cc2cccc3ccccc23)NC(=O)[C@H](Cc2ccccc2)NC(=O)CSC[C@@H](C(=O)NCC(N)=O)NC(=O)[C@H](CCCCNC(=O)N2CCN(CC(=O)O)CC2)NC(=O)[C@H](Cc2c[nH]cn2)NC(=O)[C@H](Cc2ccc(O)cc2)NC(=O)[C@H](Cc2cccc3ccccc23)NC1=O` [TGFb1_026] ({CH2CO}-F[1Nal]VK([CO-Meglumine])NV[4Pal]DK([CO-Meglumine])[Gly(NCH2CH2Ph)]V[1Nal]YHK([CO-Piperazinyl(4-CH2COOH)])CG-NH2; thioether N-16), in experiment [1], the inhibition at 62 pM was 6.85%, the inhibition at 0.000185 µM amounted to 17.8%, the inhibition at 0.00056 µM came to 41.4% and the inhibition at 0.0017 µM is 74.3%. Further, in experiment [1], the inhibition at 0.005 µM was determined as 93.4% and the inhibition at 0.015 µM turned out to be 98%. In addition, the Kd in experiment [2] turned out to be 1.03 nM.

As for `CC(C)[C@@H]1NC(=O)CN(CCc2ccccc2)C(=O)[C@H](CCCCNC(=O)N2CCN(CC(=O)O)CC2)NC(=O)[C@H](CC(=O)O)NC(=O)[C@H](Cc2ccncc2)NC(=O)[C@H](C(C)C)NC(=O)[C@H](CC(N)=O)NC(=O)[C@H](C(C)C)NC(=O)[C@H](C(C)C)NC(=O)[C@H](Cc2cccc3ccccc23)NC(=O)[C@H](Cc2ccccc2)NC(=O)CSC[C@@H](C(=O)NCC(N)=O)NC(=O)[C@H](CCCCNC(=O)N2CCN(CC(=O)O)CC2)NC(=O)[C@H](Cc2c[nH]cn2)NC(=O)[C@H](Cc2ccc(O)cc2)NC(=O)[C@H](Cc2cccc3ccccc23)NC1=O` [TGFb1_022] ({CH2CO}-F[1Nal]VVNV[4Pal]DK([CO-Piperazinyl(4-CH2COOH)])[Gly(NCH2CH2Ph)]V[1Nal]YHK([CO-Piperazinyl(4-CH2COOH)])CG-NH2; thioether N-16), in experiment [1], the inhibition at 62 pM is 6.49%, the inhibition at 0.000185 µM turned out to be 20.8%, the inhibition at 0.00056 µM was 53.8% and the inhibition at 0.0017 µM was found to be 85.2%. In experiment [1], the inhibition at 0.005 µM was determined as 97.1% and the inhibition at 0.015 µM is 99.5%. Also, the Kd in experiment [2] amounted to 0.91 nM.

With `CC(C)[C@@H]1NC(=O)CN(CCc2ccccc2)C(=O)[C@H](CCCCNC(=O)N(C)C[C@H](O)[C@@H](O)[C@H](O)[C@H](O)CO)NC(=O)[C@H](CC(=O)O)NC(=O)[C@H](Cc2ccncc2)NC(=O)[C@H](C(C)C)NC(=O)[C@H](CC(N)=O)NC(=O)[C@H](CCCCNC(=O)N(C)C[C@H](O)[C@@H](O)[C@H](O)[C@H](O)CO)NC(=O)[C@H](C(C)C)NC(=O)[C@H](Cc2cccc3ccccc23)NC(=O)[C@H](Cc2ccccc2)NC(=O)CSC[C@@H](C(=O)NCC(N)=O)NC(=O)[C@H](CCC(=O)O)NC(=O)[C@H](Cc2c[nH]cn2)NC(=O)[C@H](Cc2ccc(O)cc2)NC(=O)[C@H](Cc2cccc3ccccc23)NC1=O` [TGFb1_030] ({CH2CO}-F[1Nal]VK([CO-Meglumine])NV[4Pal]DK([CO-Meglumine])[Gly(NCH2CH2Ph)]V[1Nal]YHECG-NH2; thioether N-16), in experiment [1], the inhibition at 62 pM came to 10.9%, the inhibition at 0.000185 µM turned out to be 14.3%, the inhibition at 0.00056 µM was 29.9% and the inhibition at 0.0017 µM stood at 52.5%. Moreover, in experiment [1], the inhibition at 0.005 µM turned out to be 80.8% and the inhibition at 0.015 µM is 95.2%. Besides, the Kd in experiment [2] was determined as 1.13 nM.

Consider `CC(C)[C@@H]1NC(=O)CN(CCc2ccccc2)C(=O)[C@H](CCCCNC(=O)N2CCN(CC(=O)O)CC2)NC(=O)[C@H](CC(=O)O)NC(=O)[C@H](Cc2ccncc2)NC(=O)[C@H](C(C)C)NC(=O)[C@H](CC(N)=O)NC(=O)[C@H](CCCCNC(=O)N(C)C[C@H](O)[C@@H](O)[C@H](O)[C@H](O)CO)NC(=O)[C@H](C(C)C)NC(=O)[C@H](Cc2cccc3ccccc23)NC(=O)[C@H](Cc2ccccc2)NC(=O)CSC[C@@H](C(=O)NCC(N)=O)NC(=O)[C@H](CCCCNC(=O)N2CCN(CC(=O)O)CC2)NC(=O)[C@H](Cc2c[nH]cn2)NC(=O)[C@H](Cc2ccc(O)cc2)NC(=O)[C@H](Cc2cccc3ccccc23)NC1=O` [TGFb1_025] ({CH2CO}-F[1Nal]VK([CO-Meglumine])NV[4Pal]DK([CO-Piperazinyl(4-CH2COOH)])[Gly(NCH2CH2Ph)]V[1Nal]YHK([CO-Piperazinyl(4-CH2COOH)])CG-NH2; thioether N-16), for which, in experiment [1], the inhibition at 62 pM was found to be 4.81%, the inhibition at 0.000185 µM stood at 18.4%, the inhibition at 0.00056 µM was determined as 43.3% and the inhibition at 0.0017 µM amounted to 77.5%. Also, in experiment [1], the inhibition at 0.005 µM was 94.7% and the inhibition at 0.015 µM stood at 99.4%. Moreover, in experiment [2], the Kd was 0.83 nM.
